Assay results from PMC3670040, “Structure of Lipid Kinase p110β/p85β Elucidates an Unusual SH2-Domain-Mediated Inhibitory Mechanism” (Molecular Cell, 2011).
Values belong to the compound of their own block, whether it stands above or below them.

Experiments:
[1] = system: p110β/p85β-nic; experiment: ATPase activity (ADP formation) in the absence of lipid substrate, Transcreener; assay type: biochemical, mouse; details: absence of lipid substrate; 75 nM protein, 100 μM ATP; 5 μM GDC0941 or D913N mutation; Figure S3B
Experimental: (§1) Figure 1 Inhibition of p110β by p85-Type Regulatory Subunits and Activation of the Complexes by RTK Phosphopeptide (A) Domain organization of p110β and the regulatory subunits p85α, p85β, and p55γ. The color scheme for the domains is used for all figures, unless otherwise stated. […] The inhibition is released upon addition of the 10 μM PDGFR pY2. […] The y axis is expressed as a change in fluorescence polarization (ΔmP), which is obtained by subtracting the observed polarization for the construct at a given enzyme concentration from the maximum fluorescence polarization for that construct. The plateau in these assays arises due to the competitive nature of the ADP detection system, based on displacement of ADP-Alexa 633 tracer from the ADP^2-antibody by ADP generated during the PI3K assay (see Supplemental Experimental Procedures). All measurements were done in triplicates, and the error bars indicate the standard error of the mean (SEM). […]
The lipid kinase activity was determined using the Transcreener ADP2 FP Assay (BellBrook Labs, Madison, WI) according to manufacturer‟s specifications. This non-radioactive assay measures activity by quantitating the amount of ADP formed. The ADP formed by PI3K competes with fluorescent ADP tracer for binding to an anti-ADP antibody, thereby decreasing fluorescence polarization. […]

[2] = system: p110β; experiment: Transcreener ADP formation (fluorescence polarization), diC8-PIP2/POPS liposomes, mouse p110β complexes; assay type: biochemical; details: absence of pY2; ADP formation; Figures 3A, 3B
Experimental: as §1
Figure 3 Mutation Y677A in p85β-cSH2 Releases Inhibitory Effect on p110β (A) Kinase activity (ADP formation) of p110β in a complex with p85β-icSH2-Y677A (Y677A-ic) compared to the wild-type complex (ic) in the absence and presence of 10 μM PDGFR pY2 (ADP formation on the y axis expressed as in Figure 1B). […]
The lipid kinase activity was determined using the Transcreener ADP2 FP Assay (BellBrook Labs, Madison, WI) according to manufacturer‟s specifications. This non-radioactive assay measures activity by quantitating the amount of ADP formed. The ADP formed by PI3K competes with fluorescent ADP tracer for binding to an anti-ADP antibody, thereby decreasing fluorescence polarization. Because of the competitive nature of this assay, the change in fluorescence polarization signal is not a linear function of enzyme activity, and a convenient measure of enzyme activity is the EC50, or the concentration of enzyme necessary to give half-maximal inhibition of labeled ADP binding to the antibody, for a given concentration of substrate and a fixed time of reaction at initial rate. […]

[3] = system: PKB; experiment: PKB phosphorylation in transfected HEK cells (Western blot); assay type: cell-based, human
Experimental: Figure 4 cSH2 Is Important for p110β Inhibition In Vitro and in Cells (A) Kinase activity of human p110β and icSH2 wild-type constructs from three human regulatory subunits (p85α, p85β, and p55γ) in the absence and presence of 10 μM PDGFR pY2 (y axis as in Figure 1B). EC50s for wild-type and icSH2 tyrosine mutants, in the absence and presence of 10 μM PDGF pY2, are shown. (B) Western blots of HEK cells transiently expressing wild-type and mutant human p110β/p85α. The membrane was probed with antibodies against PKB, pPKB (pSer473), myc (p110β), FLAG (p85α), and actin. Bar graphs show mean ± SEM (n = 3) of PKB phosphorylation level normalized to wild-type p110β/p85α (WT). The position of the three mutations is mapped on the p110β/p85β structure. TEXT PRINTED IN THE PICTURE: (A) p110β/p85α-ic: EC50 (nM): 3 | (A) p110β/p85α-ic+pY2: EC50 (nM): 0.3 | (A) p110β/p85β-ic: EC50 (nM): 1.2 | (A) p110β/p85β-ic+pY2: EC50 (nM): 0.3 | (A) p110β/p55γ-ic: EC50 (nM): 1.5 | (A) p110β/p55γ-ic+pY2: EC50 (nM): 0.3 | (A) p110β/p85α-ic-Y685A: EC50 (nM): 0.3 | (A) p110β/p85α-ic-Y685A+pY2: EC50 (nM): 0.3 | (A) p110β/p85β-ic-Y683A: EC50 (nM): 0.4 | (A) p110β/p85β-ic-Y683A+pY2: EC50 (nM): 0.3 | (A) p110β/p55γ-ic-Y419A: EC50 (nM): 0.2 | (A) p110β/p55γ-ic-Y419A+pY2: EC50 (nM): 0.2 […]
Figure S4, Related to Figure 4. Tyr-Mutation in cSH2 Activates PI3K Downstream […]
(A) Western blot of HEK cells over-expressing wild-type and mutant human p110β/p85α complexes. Protein kinase B (PKB) phosphorylation (pPKB) levels at residues Ser473 and Thr308 were quantified and normalized WT p110β/p85α (WT).
(B) Quantification of PtdIns(3,4,5)P3 levels in HEK cells over-expressing wild-type and mutant human p110β/p85α complexes. Phospholipids were extracted from cells and PtdIns(3,4,5)P3 and PtdIns(4,5)P2 levels were quantified by mass spectrometry.
PtdIns(3,4,5)P3 / […] for each construct for two separate experiments measured in duplicates. Error bars indicate SEM. […]
The PIP3 lipids produced in PI3K in vitro assays as described above were also measured by a mass-spectrometry based assay (Clark et al.). […]

inhibition of ATPase activity [1]: fully inhibited
Compound: CS(=O)(=O)N1CCN(Cc2cc3nc(-c4cccc5[nH]ncc45)nc(N4CCOCC4)c3s2)CC1 [GDC0941, 2-(1H-indazol-4-yl)-6-(4-methanesulfonyl-piperazin-1-ylmethyl)-4-morpholin-4-yl-thieno[3,2-d]pyrimidine]

Compound: nicSH2-Y677A: p110β complex with regulatory construct containing wild-type nSH2 but mutant cSH2-Y677A
basal activity versus wild-type complex [2]: basal activity higher than the wild-type

Compound: p85α-Y685A: full-length human p85α-Y685A cotransfected with human wild-type p110β
increase in PKB phosphorylation relative to wild-type heterodimer ([3]; HEK293T cells cotransfected with human p110β and p85α mutant, pSer473 mean n = 3, Figures 4B and S4A): 2 fold

Compound: p110β/p85α-N564D: heterodimer carrying somatic p85α mutation N564D
phosphorylation of PKB Ser473 ([3]; HEK cells, Figure 4B, n = 3): increase in phosphorylation
phosphorylation of PKB Thr308 ([3]; HEK cells, Figure S4A): increase in phosphorylation
